Measured values taken from patent publication US20220331310A1, “METHODS FOR ALLEVIATING PTERYGIUM-ASSOCIATED WORRY ABOUT EYE APPEARANCE” (Cloudbreak Therapeutics, LLC, priority 2019, published 2022).

Tested on: Patients with Primary or Recurrent Pterygium
Test: Phase 2a vehicle-controlled study of nintedanib ophthalmic solution; patient questionnaire on symptoms and life impacts (1-5 scale)
Assay type: in vivo, human
Settings: 0.2% nintedanib ophthalmic solution, topical ocular, TID for 28 days, versus vehicle
Method: A Phase 2a Multicenter, Randomized, Vehicle-Controlled, Dose Escalating Study to Evaluate the Safety, Efficacy and Pharmacokinetics of Nintedanib Ophthalmic Solution in Patients with Primary or Recurrent Pterygium
Objectives of the study were to evaluate ocular and systemic safety of nintedanib and its efficacy in reducing pterygium vascularity in primary or recurrent patients. Several other secondary endpoints were also assessed, including the assessment of symptoms and life impacts by using a questionnaire based on a numerical 1-5 scale. The double-masked, vehicle-controlled, parallel study was conducted with 28 days TID repeat ocular dosing of vehicle and 0.2% nintedanib.
The disclosure focused on the relevant questionnaire endpoint that included 15 questions regarding the ocular symptoms, vision related functioning and the impact on life quality in patients. The questionnaire was derived from the validated Visual Functioning Questionnaire-25 (VFQ-25) (National Eye Institute, 2000) and the validated Ocular Surface Disease Index (OSDI) questionnaire (Schiffman R M, Christianson M D, Jacobsen G, Hirsch J D, Reis B L. Reliability and validity of the Ocular Surface Disease Index. Arch Ophthalmol. 2000; 118 (5): 615-621.). The patients were asked to rate severity using a 5-point scale, with 5 being the most severe.

COC(=O)c1ccc2c(c1)NC(=O)/C2=C(\Nc1ccc(N(C)C(=O)CN2CCN(C)CC2)cc1)c1ccccc1 [nintedanib]
frequency of worry about eye appearance (question "Worry about eye appearance?", change of questionnaire score) (5-point scale, 5 most severe, FIG. 1): significantly better improvements than the vehicle group
questionnaire questions showing a significant difference between drug and vehicle (15-question questionnaire derived from VFQ-25 and OSDI): only one out of fifteen questions showed a significant difference
